Measurements: patent publication US6242461A, “Use of aryl substituted azabenzimidazoles in the treatment of HIV and AIDS related diseases” (Pfizer Inc., priority 2000, dated 2001)

molecular target: HIV-1 RT (Human immunodeficiency virus type 1 group M subtype B, UniProt P04585); experiment: HIV Reverse Transcriptase Assay (RNA-dependent DNA polymerase activity, 3H-dCTP incorporation); assay type: biochemical; settings: 60 nM HIV-RT, tRNA-Lys3 primer/viral RNA template, 45 minutes, room temperature, 0.7% DMSO
Method: Utilizing the Reverse Transcriptase (RT) Assay described below, compounds can be tested for their ability to inhibit the RNA-dependent DNA polymerase activity of HIV-1 RT. Compounds described in the Examples which appear below, were so tested.
HIV Reverse Transcriptase Assay:
HIV reverse transcriptase activity is assessed by following the incorporation of ^3 H-dCTP into newly synthesized DNA using the natural tRNA^Lys3 primer annealed to a viral RNA template sequence. Assays are performed in a final volume of 100 μL in 96-well plates. Briefly, assay buffer (50 mM Tris pH 7.5, 50 mM NaCl, 5 mM MgCl2), primer/template (10-60 nM), dNTPs (dATP, dGTP, dTTP; 100 nM each), and ^3 H-dCTP (180 nM) are combined, and the reaction is initiated with 60 nM HIV-RT. After 45 minutes at room temperature, the assay is quenched with 0.1 M EDTA and harvested onto a DEAE filter using a Skatron Harvester with a solution of 5% Na2 HPO4 -2% sodium pyrophosphate. The filter mats are dried and placed into a plastic bag with 10 ml of scintillant, and counted on a Wallac BetaPlate reader. Non-specific activity is determined by adding 0.1 M EDTA at the start of the assay.
To assess the activity of compounds on HIV-RT activity, compounds are added to the assay prior to addition of enzyme. Compounds are dissolved in 14% DMSO (0.7% final), and tested at 32, 10, 3.2, 1.0, 0.32, and 0.10 μM in triplicate. % Inhibition is calculated according to the following equation: […]

Row | Structure (SMILES) | inhibition at 10 µM
1 | COc1ccc2sc(=O)n(Cc3ccc(-n4c(C)nc5cnccc54)cc3)c2c1 [Example 8, 5-Methoxy-3-[4-(2-methyl-imidazo[4,5-c]pyridin-1-yl)-benzyl]-3H-benzothiazol-2-one] | 41%
2 | CCc1nc2cnccc2n1-c1ccc(Cn2c(=O)sc3ccccc32)cc1 [Example 3, 3-[4-(2-Ethyl-imidazo[4,5-c]pyridin-1-yl)-benzyl]-3H-benzothiazol-2-one] | 72%
3 | Cc1nc2ccccc2n1Cc1ccc(-n2c(C)nc3cnccc32)cc1 [Example 16, 2-Methyl-1-[4-(2-methyl-benzoimidazol-1-ylmethyl)-phenyl]1H-imidazo[4,5-c]pyridine] | 20%
4 | Cc1ccc2c(c1)sc(=O)n2Cc1ccc(-n2c(C)nc3cnccc32)cc1 [Example 5, 6-Methyl-3-[4-(2-methyl-imidazo[4,5-c]pyridin-1-yl)-benzyl]-3H-benzothiazol-2-one] | 30%
5 | Cc1nc2cnccc2n1-c1ccc(Cn2c(=O)sc3cc(Cl)ccc32)cc1 [Example 7, 6-Chloro-3-[4-(2-methyl-imidazo[4,5-c]pyridin-1-yl)-benzyl]-3H-benzothiazol-2-one] | 45%
6 | CC(C)c1nc2cnccc2n1-c1ccc(Cn2c(=O)sc3ccccc32)cc1 [Example 4, 3-[4-(2-lsopropyl-imidazo[4,5-c]pyridin-1-yl)-benzyl]-3H-benzothiazol-2-one] | 23%
7 | Cc1nc2cnccc2n1-c1ccc(Cn2c(=O)sc3cc(F)ccc32)cc1 [Example 2, 6-Fluoro-3-[4-(2-methyl-imidazo[4,5-c]pyridin-1-yl)-benzyl]-3H-benzothiazol-2-one] | 76%
8 | Cc1nc2cnccc2n1-c1ccc(Cn2c(=O)sc3ccccc32)cc1 [Example 1, 3-[4-(2-Methyl-imidazo[4,5-c]pyridin-1-yl)-benzyl]-3H-benzothiazol-2-one] | 78%
9 | Cc1nc2cnccc2n1-c1ccc(Cn2c(=O)oc3ccccc32)cc1 [Example 13, 3-[4-(2-Methyl-imidazo[4,5-c]pyridin-1-yl)-benzyl]-3H-benzooxazol-2-one] | 61%
10 | COc1ccc2c(c1)sc(=O)n2Cc1ccc(-n2c(C)nc3cnccc32)cc1 [Example 6, 6-Methoxy-3-[4-(2-methyl-imidazo[4,5-c]pyridin-1-yl)-benzyl]-3H-benzothiazol-2-one] | 22%
